Data: ChEMBL document CHEMBL4819049, “Estrogenic activity of ethyl gallate and its potential use in hormone replacement therapy” (Bioorg Med Chem Lett, 2021)
The source made the active and inactive calls. The calls are words filed in the database; no cut-off is given here.

Experiments:
MCF7 [1] = assay: Cytotoxicity against human ER-positive MCF7 cells assessed as increase in cell proliferation at 12.5 to 100 uM incubated for 24 hrs; type: cell-based; settings: mcf7, 24 h, dose 12.5-100 µM
MCF7 [2] = assay: Estrogenic activity at human ER-positive MCF7 cells assessed as increase in cell proliferation at 50 uM incubated for 144 hrs by Soto's E-screen assay; type: functional, cell-based
MCF7 [3] = assay: Cytotoxicity against human ER-positive MCF7 cells assessed as reduction in cell proliferation at 50 uM incubated for 144 hrs by Soto's E-screen assay; type: cell-based; settings: mcf7, 144 h
Rattus norvegicus [4] = assay: Estrogenic activity in immature rat model assessed as uterine weight at 10 ug/kg, sc (reference value: 37.67 mg); type: functional; settings: dose 10 µg/kg
MCF7 [5] = assay: Cytotoxicity against human ER-positive MCF7 cells assessed as cell proliferation at 50 uM incubated for 144 hrs by Soto's E-screen assay relative to control; type: cell-based; settings: mcf7, 144 h
MCF7 [6] = assay: Cytotoxicity against human ER-positive MCF7 cells assessed as decrease in cell proliferation at 12.5 to 100 uM incubated for 24 hrs; type: functional, cell-based; settings: for IC50: MCF7, 24 h; for inhibition: dose 12.5-100 µM
MCF7 [7] = assay: Estrogenic activity at human ER-positive MCF7 cells assessed as cell proliferation at 50 uM incubated for 144 hrs by Soto's E-screen assay relative to control; type: functional; settings: read-out: Activity
MCF7 [8] = assay: Estrogenic activity at human ER-positive MCF7 cells assessed as increase in cell proliferation at 50 uM incubated for 144 hrs in presence of ER antagonist, ICI182780 by Soto's E-screen assay; type: functional, cell-based
Rattus norvegicus [9] = assay: Estrogenic activity in immature rat model assessed as uterine weight at 100 mg/kg, sc administered once daily for 3 days (reference value: 37.67 mg); type: functional; settings: dose 100 mg/kg/day; time 3 day
[10] = target: T1, Estrogen receptor (Homo sapiens) (UniProt P03372); assay: Agonist activity at ER in human MCF7 cells assessed as increase in receptor gene activity by luciferase reporter gene assay; type: cell-based; settings: filed as agonist, dose 12.5-100 µM
T1 sequence (whole entry): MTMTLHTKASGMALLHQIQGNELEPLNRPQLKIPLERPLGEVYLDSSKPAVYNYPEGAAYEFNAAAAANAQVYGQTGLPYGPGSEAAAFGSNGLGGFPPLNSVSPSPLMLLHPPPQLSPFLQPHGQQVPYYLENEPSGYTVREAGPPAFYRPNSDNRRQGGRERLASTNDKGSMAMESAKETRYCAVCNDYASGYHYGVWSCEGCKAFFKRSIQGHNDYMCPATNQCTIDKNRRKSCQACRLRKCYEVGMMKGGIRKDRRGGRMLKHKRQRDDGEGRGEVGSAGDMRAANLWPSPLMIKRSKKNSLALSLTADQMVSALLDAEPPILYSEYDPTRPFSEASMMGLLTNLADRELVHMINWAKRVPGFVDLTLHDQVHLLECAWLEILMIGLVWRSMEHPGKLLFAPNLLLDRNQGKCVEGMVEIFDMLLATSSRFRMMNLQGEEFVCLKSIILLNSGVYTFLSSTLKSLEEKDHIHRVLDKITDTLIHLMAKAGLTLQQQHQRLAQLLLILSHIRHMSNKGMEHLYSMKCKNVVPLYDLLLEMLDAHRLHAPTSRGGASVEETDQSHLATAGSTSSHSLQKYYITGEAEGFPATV

[11] = target: T1, Estrogen receptor (Homo sapiens); assay: Agonist activity at ER in human MCF7 cells assessed as increase in receptor gene activity at 12.5 to 100 uM in presence of ER antagonist, ICI182780 by luciferase reporter gene assay; type: cell-based; settings: dose 12.5-100 µM
[12] = target: T1, Estrogen receptor (Homo sapiens); assay: Agonist activity at ER in human MCF7 cells assessed as increase in receptor gene activity at 12.5 to 100 uM in presence of ER agonist, 17-beta-estradiol by luciferase reporter gene assay relative to control; type: cell-based; settings: dose 12.5-100 µM
MCF7 [13] = assay: Estrogenic activity at human ER-positive MCF7 cells assessed as increase in cell proliferation incubated for 144 hrs by Soto's E-screen assay; type: functional, cell-based; settings: dose 25-100 µM
MCF7 [14] = assay: Estrogenic activity at human ER-positive MCF7 cells assessed as increase in cell proliferation at 12.5 to 100 uM incubated for 144 hrs in presence of ER antagonist, ICI182780 by Soto's E-screen assay; type: functional, cell-based; settings: dose 12.5-100 µM

Compound	Activity (MCF7 [1])	Activity (MCF7 [2])	Activity (MCF7 [3])	other results
C[C@@]12C[C@@]3(O)O[C@@H](O1)[C@]1(COC(=O)c4ccc(O)cc4)[C@H]3C[C@@]12O[C@@H]1O[C@H](CO)[C@@H](O)[C@H](O)[C@H]1O	Non-Toxic	inactive	Non-Toxic	
C[C@]12CC[C@@H]3c4ccc(O)cc4CC[C@H]3[C@@H]1CC[C@@H]2O [ESTRADIOL]				Activity (Rattus norvegicus [4]): 51 mg
C[C@@]12C[C@@]3(O)O[C@@H](O1)[C@]1(COC(=O)c4ccccc4)[C@H]3C[C@@]12O[C@@H]1O[C@H](COC(=O)c2ccccc2)[C@@H](O)[C@H](O)[C@H]1O	Non-Toxic	inactive	Non-Toxic	
COc1ccc(C(C)=O)c(O)c1 [PAEONOL]	Non-Toxic	inactive	Non-Toxic	
O=C(O)c1ccccc1 [BENZOIC ACID]	Non-Toxic	inactive	Non-Toxic	
O=C(O)c1cc(O)c(O)c(O)c1 [GALLIC ACID]	Non-Toxic			Activity (MCF7 [5]): 15.8%; IC50 (MCF7 [6]): 17.4 µM; inhibition (MCF7 [6]): Dose-Dependent Effect
CCOC(=O)c1cc(O)c(O)c(O)c1 [ETHYLGALLATE]	Non-Toxic			growth at 50 µM (MCF7 [7]): 131%; Activity (MCF7 [8]): inactive; Activity (Rattus norvegicus [9]): 43.67 mg; Activity [10]: Dose-Dependent Effect; Activity [11]: inactive; fold change (FC) [12]: > 2; Activity (MCF7 [13]): Dose-Dependent Effect; Activity (MCF7 [14]): inactive; IC50 (MCF7 [6]): 62.5 µM; inhibition (MCF7 [6]): Dose-Dependent Effect
C[C@@]12C[C@@]3(O)O[C@@H](O1)[C@]1(COC(=O)c4ccccc4)[C@H]3C[C@@]12O[C@@H]1O[C@H](CO)[C@@H](O)[C@H](O)[C@H]1O [PAEONIFLORIN]	Non-Toxic	inactive	Non-Toxic	
